Laboratory results as given in US20260138969A1 (Korea Research Institute of Chemical Technology, priority 2023, published 2026).
Marks after values point to notes of the source that are not given here.

How the values were obtained:
[1] = test system: BV2 cells; experiment: Anti-inflammatory efficacy: LPS-induced TNF-α secretion (ELISA); type: cell-based; settings: 0.1, 0.3, 1 μM pretreatment 1 hour, LPS 100 μg/ml 24 hours; FIG. 2
Procedure: BV2 cells (2×10^4 cells per well) were incubated for 24 hours in a 96-well culture plate. Subsequently, the Example compounds were added in 0.1 μM, 0.3 μM, and 1 μM, respectively, for 1 hour, followed by the addition of LPS 100 μg/ml and incubated for 24 hours. After incubation, conditioned medium (CM) was harvested and centrifuged at 2000 rpm. After separating the supernatant of the solution after centrifugation, the TNF-α secreted from the cell culture medium was measured using the corresponding ELISA kit (LABISKOMA, Seoul, Korea).

[2] = TG synthesis inhibition in FFA-treated HepG2 cells; type: cell-based, human; settings: human, HepG2 cells, read-out: Cell Viability (% of HepG2 control)
[3] = test system: HepG2 cells; experiment: TG synthesis inhibition in FFA-treated HepG2 cells; type: cell-based, human
[4] = test system: SOD1 G93A transgenic ALS mouse model; experiment: SOD1 G93A transgenic ALS mouse model: neurological score; type: in vivo; settings: 30 mg/kg PO QD; from the 19th week of age onwards; vs G2
Procedure: (§1) The test drug was administered once daily (QD) via oral administration (PO) in a solution of 5 mL/kg from 8 weeks of age until death. Body weight was measured weekly, and disease score was measured daily from 8 weeks until the death of the animal. Motor behavior tests (grip strength) and neurological score tests (modified Irwin test) were performed at 9, 11, 13, 15, 17, 19, and 21 weeks, respectively. The survival of the mice was monitored daily.

[5] = test system: SOD1 G93A transgenic ALS mouse model; experiment: SOD1 G93A transgenic ALS mouse model: disease symptom score (ALSTDI); type: in vivo; settings: 30 mg/kg PO QD from 8 weeks of age; vs G2
Procedure: as §1
From 8 weeks of age, the neurological scoring system developed by the ALS Therapy Development Institute (ALSTDI) method was used to evaluate disease symptoms in mice. Both hind legs were scored based on Table 14 below.

[6] = test system: SOD1 G93A transgenic ALS mouse model; experiment: SOD1 G93A transgenic ALS mouse model: grip strength; type: in vivo; settings: 30 mg/kg PO QD from 8 weeks of age; vs G2
Procedure: as §1
Grip strength measurements were performed on mice aged 9, 11, 13, 15, 17, 19, and 21 weeks of age. The mouse was placed on a grip strength measurement device (San Diego Instruments, San Diego, USA) in such a way that the mouse grabbed the handle of a small mesh with its front paws. I put the mouse down on the platform and then slowly pulled the handle […] until the mouse released the handle. The device automatically measured the grip strength of the mouse in grams. Five scores per mouse were recorded consecutively in a one-day session.

[7] = test system: α-Syn transgenic Parkinson's disease mouse model; experiment: α-Syn transgenic Parkinson's disease mouse model: microglial reduction (Iba-1); type: in vivo; settings: 9 months of age; Memantine 10 mg/kg (G3), G4 2 mg/kg, G5 10 mg/kg, G7 2 mg/kg PO QD
Procedure: The test drug was administered once daily (QD) via oral administration (PO) with a solution of 5 ml/kg for 5 months from 4 months to 9 months of age. Motor behavior tests (beam test) and neurological scores (modified Irwin test) were performed at 4 months (before administration), 7 months, and 9 months. After the final behavioral test, tissue samples were taken. Weight was measured on the same day once a week from 4 months of age until the end of the study.
At 9 months of age, the measurement period ended, the mice were anesthetized, and then the experiment was terminated by cardiac puncture according to IACUC guidelines. Mice were perfused transcardially with 0.9% saline for tissue staining, followed by 4% paraformaldehyde until the mice were fixed. The brains were isolated and immobilized by soaking in 4% paraformaldehyde at 4° C. for 24 hours, followed by 30% sucrose added to PBS containing 0.02% sodium azide and stored at 4° C. for 3 days. Brain samples embedded in OCT compounds were sectioned to a thickness of 20 μm using Leica CM1950 (Leica Microsystems, Germany). The sections were stored at 4° C. in a preservation solution until they were stained by antibodies. […]
To assess microgliosis of the cortex, Iba-1-stained brain tissue was imaged in experimental example 10.5 using an immunofluorescence microscope (Olympus, BZ21) in Olympus. Each marker was manually counted to quantify Iba1.

[8] = test system: Reserpine-induced fibromyalgia rat model; experiment: Reserpine-induced fibromyalgia rat model: pain (von Frey test); type: in vivo
Procedure: Reserpine-induced fibromyalgia model generation and drug administration were carried out on 6-week-old male SD rats divided into 6 groups as shown in Table 15 below: control group (G1), reserpine+delivery (G2), reserpine+gabapentin 50 mg/kg (G3), reserpine+Example 2 3 mg/kg (G4), 10 mg/kg (G5), and 30 mg/kg (G6). To create a rat fibromyalgia model, reserpine (Sigma-aldrich, 1 mg/kg) dissolved in 0.5% acetic acid was administered subcutaneously once for 3 days from 3 days before the start of the experiment. Beginning on Day 1, the once-daily (QD) delivery body, gabapentin, and embodiment 2 were administered intraperitoneally (IP) or orally (PO) 2 hours before the experiment was performed.
The right hind foot tactile response test (von Frey test) was performed 5 times (before the fibromyalgia model, and on the 1st, 2nd, 4th and 6th days after the model was generated). Before all behavioral tests, rats were accustomed to the environment for 30 minutes, and all experimenters performing behavioral tests were made blind to drug administration information. Before model generation, baseline measurements were performed by performing the von Frey test on all rats. The rat was placed on a wired mesh and placed in a transparent plastic box (20×20×14 cm), and the foot withdrawal threshold was measured by applying a von Frey filament (ascending weight: 0.4, 0.6, 1.4, 2, 4, 6, 8, and 15 g, North Coast) to the middle of the right hind foot to assess foot allodynia.

Row | Structure (SMILES) | TNF-α secretion induced by LPS [1] | viability at 48 h, 0.3 μM ([2]; FFA 1 mM + 0.3 μM) | viability at 48 h, 1 μM ([2]; FFA 1 mM + 1 μM) | TG Level (% of HepG2 control) ([3]; FFA 1 mM + 0.3 μM) | TG Level (% of HepG2 control) ([3]; FFA 1 mM + 1 μM) | neurological scores [4] | disease symptom score [5] | grip strength [6] | number of IBA-1 positive cells in the cerebral cortex [7] | pain improvement efficacy (von Frey test) ([8]; 30 mg/kg PO QD) | sensitivity (foot withdrawal threshold, von Frey test) ([8]; gabapentin 50 mg/kg IP QD, Example 2 3, 10, 30 mg/kg PO QD, days 1, 2, 4, 6)
1 | Cc1cc(F)c(C(=O)Nc2cccc(-n3nnc4c3CCCC4)n2)cc1-n1cnc(C2CC2)c1 [Example 3, 5-(4-cyclopropyl-1H-imidazole-1-yl)-2-fluoro-4-methyl-N-(6-(4,5,6,7-tetrahydro-1H-benzo[d][1,2,3]triazole-1-yl)pyridine-2-yl)benzamide] | reduced TNF-α secretion at all concentrations compared to Selonsertib | 99.1% | 93.1% | 117.38 * % of HepG2 control | 106.59 * % of HepG2 control | significant decrease in neurological scores compared to G2 | tended to have a lower disease symptom score compared to G2 during the observation period, and decreased significantly at 20 weeks | tended to increase grip strength compared to group G2, and the grip strength increased significantly from 19 weeks |  |  | 
2 | Cc1cc(F)c(C(=O)Nc2cccc(-n3nnc4c3CCC4)n2)cc1-n1cnc(C2CC2)c1 [Example 2, 5-(4-cyclopropyl-1H-imidazole-1-yl)-N-(6-(5,6-dihydrocyclopenta[d][1,2,3]triazole-1 (4H)-yl)pyridine-2-yl)-2-fluoro-4-methylbenzamide] |  |  |  |  |  |  |  |  | significantly reduced | significant efficacy | gradually improved over time
